Non-standard residues stand in square brackets, D forms with d. Residues, ends and D or L forms follow the SMILES beside them. No end group written: not given here. Aib = CC(C)(N)C(=O)O
What was measured:
[1] = biological target: T1, LCAT (purified from human plasma) (Homo sapiens, UniProt P04180); test: LCAT activation assay; type: biochemical; settings: LCAT activation as compared with native human ApoA-I (= 100%), equivalent masses
T1 construct: from tissue; host or cells: human plasma
T1 sequence (P04180 25-440): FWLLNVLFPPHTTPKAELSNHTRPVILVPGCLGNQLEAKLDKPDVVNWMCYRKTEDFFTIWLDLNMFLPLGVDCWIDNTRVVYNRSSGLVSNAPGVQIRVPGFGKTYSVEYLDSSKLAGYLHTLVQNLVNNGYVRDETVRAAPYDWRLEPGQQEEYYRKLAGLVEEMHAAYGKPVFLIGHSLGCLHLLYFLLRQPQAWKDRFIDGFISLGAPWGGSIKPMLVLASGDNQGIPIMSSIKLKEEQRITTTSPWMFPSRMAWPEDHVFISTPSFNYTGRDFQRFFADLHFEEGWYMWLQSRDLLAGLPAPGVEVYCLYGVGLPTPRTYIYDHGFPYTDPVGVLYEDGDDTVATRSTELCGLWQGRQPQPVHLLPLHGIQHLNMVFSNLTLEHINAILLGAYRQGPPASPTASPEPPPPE
How it was run: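 Substrate SUVs of EPC or POPC with 14C-cholesterol (20:1 molar ratio), in 10 mM Tris, 0.14 M NaCl, 1 mM EDTA, pH 7.4, were preincubated with peptide or equal mass of plasma ApoA-I. Reaction started with human plasma LCAT; activation was measured as cholesterol-to-ester conversion relative to ApoA-I (100%).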

[2] = Circular dichroism helicity determination; type: physicochemical; settings: percent helicity; for He (%) TFE: 5 μM peptide, 90% vol TFE; for He (%) TFE / He (%) SUVs: 37° C.; for He (%) free: unbound peptide 5 μM in 5 mM phosphate buffer, pH 7.4, 37° C.; for He (%) SUVs: peptide-SUV complexes (20:1 EPC:Chol., Ri=30 and Ri=50); for He (%) mics: peptide-micelle complexes, Ri=100, 37° C.
Experimental: Far UV circular dichroism spectra were recorded between 190 and 260 nm (in 0.5 nm or 0.2 nm increments) with a AVIV62DS spectrometer (AVIV Associates, Lakewood, N.J., USA) equipped with a thermoelectric cell holder and sample changer. The instrument was calibrated with (+)-10-[…]. Between one and three scans were collected for each sample, using 10 cm, 5 cm, 1 cm and 0.1 cm path length quartz Suprasil cells, respectively, for peptide concentrations of 10^−7 M to 10^−4 M. The bandwidth was fixed at 1.5 nm and the scan speed to 1s per wavelength step. The reported data are the mean of at least 2 or 3 independent measurements.
After background substraction, spectra were converted to molar ellipticity (θ) per residue in deg. […] dmol^−1. The peptide concentration was determined by amino acid analysis and also by absorption spectrometry on a Perkin Elmer Lambda 17 UV/Visible spectrophotometer when the peptide contained a chromophore (tryptophane, dansyl, naphtylalanine).
CD spectra were obtained with free, unbound peptide (5 μM in 5 mM phosphate buffer, pH 7.4); with peptide-SUV complexes (20:1 EPC:Chol., Ri=30 and Ri=50); with peptide-micelle complexes (1-myristoyl-2-hydroxy-sn-glycero-3-phosphatidyl choline, Ri=100); and with free, unbound peptide in the presence of 2,2,2-trifluoroethanol (TFE) (5 μM peptide, 90% vol TFE).
The SUVs were obtained by dispersing the lipids (10 mM, 20:1 EPC:Chol., Avanti Polar Lipids, AL) in phosphate buffer (5 mM, pH 7.4) with bubbling N2 for 5 min., followed by sonication (1.5 hr.) in a bath sonicator. The homogeneity of the preparation was checked by FPLC.
The micelles were obtained by dispersing the lipid (6 mM 1-myristoyl-2-hydroxy-sn-glycero-3-phosphatidyl choline, Avanti Polar Lipids, AL) in phosphate buffer (5 mM, pH 7.4) with bubbling N2 for 5 min., followed by vortexing.
To obtain the peptide-SUV complexes, SUVs were added to the peptide (5 μM in 5 mM phosphate buffer, pH 7.4) at a phospholipid-peptide molar ratio (Ri) of 30 or 50.
To obtain the peptide-micelle complexes, micelles were added to the peptide (5 μM in 5 mM phosphate buffer, pH 7.4) at a Ri of 100.
All spectra were recorded at 37° C.
The degree of helicity of the peptides in the various conditions was determined from the mean residue ellipticity at 222 nm (Chen et al., 1974, Biochemistry 13:3350-3359) or by comparing the CD spectra obtained to reference spectra available on databases (16 helical reference spectra from Provencher & Glockner, 1981, Biochemistry 20:33-37; denatured protein reference spectra from Venyaminov et al., 1993, Anal. Biochem. 214:17-24) using the CONTIN curve-fitting algorithm version 2DP, CD-1 pack (August 1982) (Provencher, 1982, Comput. Phys. Commun. 27:213-227, 229-242). Acceptable fit was determined using the statistical analysis methodology provided by the CONTIN algorithm. The error of all methods was ±5% helicity.

Row | Compound | ACTIVITY (%) LCAT [1] [%] | also measured
1 | CC(C)C[C@H](NC(=O)[C@H](C)NC(=O)[C@H](CCC(=O)O)NC(=O)[C@H](CC(C)C)NC(=O)[C@H](CC(C)C)NC(=O)[C@H](CCC(=O)O)NC(=O)[C@H](CC(N)=O)NC(=O)[C@H](CC(C)C)NC(=O)[C@H](CC(C)C)NC(=O)[C@H](CCC(=O)O)NC(=O)[C@H](CCCNC(=N)N)NC(=O)[C@H](Cc1ccccc1)NC(=O)[C@H](CC(C)C)NC(=O)[C@H](CC(=O)O)NC(=O)[C@H](CC(C)C)NC(=O)[C@@H](NC(=O)[C@@H]1CCCN1)C(C)C)C(=O)N[C@@H](CCCCN)C(=O)N[C@@H](CCC(N)=O)C(=O)N[C@@H](CCCCN)C(=O)N[C@@H](CC(C)C)C(=O)N[C@@H](CCCCN)C(=O)O [compound 4] | 93 | He (%) TFE [2]: 94%; He (%) free [2]: 80%; He (%) SUVs [2]: 97%; He (%) mics [2]: 95%
2 | CC(C)C[C@H](NC(=O)[C@H](C)NC(=O)[C@H](CCC(=O)O)NC(=O)[C@H](CC(C)C)NC(=O)C(C)(C)NC(=O)[C@H](CCC(=O)O)NC(=O)[C@H](CC(N)=O)NC(=O)[C@H](CC(C)C)NC(=O)[C@H](CC(C)C)NC(=O)[C@H](CCC(=O)O)NC(=O)[C@H](CCCNC(=N)N)NC(=O)[C@H](Cc1ccccc1)NC(=O)[C@H](CC(C)C)NC(=O)[C@H](CC(=O)O)NC(=O)[C@H](CC(C)C)NC(=O)[C@@H](NC(=O)[C@@H]1CCCN1)C(C)C)C(=O)N[C@@H](CCCCN)C(=O)N[C@@H](CCC(N)=O)C(=O)N[C@@H](CCCCN)C(=O)N[C@@H](CC(C)C)C(=O)N[C@@H](CCCCN)C(=O)O [compound 6, PVLDLFRELLNEXLEALKQKLK] (H-PVLDLFRELLNE[Aib]LEALKQKLK-OH) | 80 | He (%) TFE [2]: 99%; He (%) free [2]: 57%; He (%) SUVs [2]: 70%; He (%) mics [2]: 93%
3 | PVFELFENLLERLLDALQKKLK [peptide 152] | 50 | 
4 | PVLDAFRELGEALLQLKK [compound 226] | 1 | 
5 | PVLDEFREKLNEELEALWQKLK [compound 121] | 0 | 
6 | PVLDEFREKLNEELEWLKQKLK [compound 122] | 0 | 
7 | PVLDEFREKLNELLEALKQKLK [compound 84] | 7 | 
8 | PVLDEFRELLNELLEALKQKLK [compound 79] | 9 | 
9 | PVLDLFDNLLDRLLDLLNKKLK [compound 173] | 15 | 
10 | PVLDLFENLLERLLDALQKKLK [compound 159] | 28 | 
11 | PVLDLFKELLQELLEALKQKLK [compound 11] | 72 | 
12 | PVLDLFREGLNELLEALKQKLK [compound 20] | 57 | 
13 | PVLDLFREKLNEELEALKQKLK [compound 106] | 0 | 
14 | PVLDLFRELLNELLE [compound 97] | 4 | 
15 | PVLDLFRELLNELLEAGKQKLK [compound 12] | 70 | 
16 | PVLDLFRELLNELLEALQKKLK [peptide 24] | 53 | 
17 | PVLDLFRELLNELLEGLKQKLK [compound 22] | 54 | 
18 | PVLDLFRELLNELWQKLK [compound 219] | 24 | 

Row | Compound | ACTIVITY (%) LCAT [1] [%] | also measured
19 | PVLDLFRNLLEELLKALEQKLK [compound 57] | 18 | 
20 | PVLDLLRELLNELLEALKQKLK [compound 16] | 59 | 
21 | PVLEFFENLLERLLDALQKKLK [compound 157] | 30 | 
22 | PVLELFDNLLDKLLDALQKKLR [compound 180] | 8 | 
23 | PVLELFDNLLEKLLEALQKKLR [compound 178] | 9 | 
24 | PVLELFDNLLERLLDALQKKLK [compound 179] | 8 | 
25 | PVLELFENLLEKLLDALQKKLK [compound 169] | 17 | 
26 | PVLELFENLLEKLLEALQKKLK [compound 182] | 7 | 
27 | PVLELFENLLERLFDALQKKLK [peptide 147] | 76 | 
28 | PVLELFENLLERLLELLNKKLK [compound 175] | 13 | 
29 | PVLELFENLLERWLDALQKKLK [compound 181] | 8 | 
30 | PVLELFERLLDELLNALQKKLK [compound 86] | 7 | 
31 | PVLELFKELLEELKQKLK [compound 216] | 35 | 
32 | PVLELFLNLLERLGDALQKKLK [compound 172] | 16 | 
33 | PVLELFLNLLERLLDAWQKKLK [compound 184] | 4 | 
34 | PVLELFLNLLERLLDWLQKKLK [compound 158] | 30 | 
35 | VLDLFRELLNEGLEALKQKLK [compound 47] | 23 | 

Further lines, with some results ahead:

Row | ACTIVITY (%) LCAT [1] [%] | Compound | also measured
36 | 1 | PVLDAFRELAEALAQLKK [compound 225] | 
37 | 8 | PVLDAFRELLEALLQLKK [compound 222] | 
38 | 1 | PVLDEFRELLNEELEALKQKLK [compound 103] | 
39 | 9 | PVLDLFERLLNELLEALQKKLK [compound 80] | 
40 | 8 | PVLDLFREGWEELKQKLK [compound 224] | 
41 | 33 | PVLDLFREKLNELLEALKQKLK [compound 33] | 
42 | 83 | PVLDLFRELGNELLEALKQKLK [peptide 9] | 
43 | 2 | PVLDLFRELLNEELEALKQKLK [compound 98] | 
44 | 18 | PVLDLFRELLNELLEALKQKKK [compound 56] | 
45 | 47 | PVLDLFRELLNELLELLKQKLK [compound 127] | 
46 | 18 | PVLELFENGLERLLDALQKKLK [compound 167] | 
47 | 55 | PVLELFENLGERLLDALQKKLK [peptide 151] | 
48 | 16 | PVLELFENLLEKLLDLLQKKLK [compound 171] | 
49 | 23 | PVLELFENLLERLLDLLQKKLK [compound 165] | 
50 | 27 | PVLELFENLLERLLEALQKKLK [compound 161] | 
51 | 17 | PVLELFEQLLEKLLDALQKKLK [compound 168] | 
52 | 59 | PVLELFKELLQELLEALKQKLK [compound 17] | 
53 | 22 | PVLELFLNLLEKLLDALQKKLK [compound 166] | 
54 | 35 | PVLELFLNLLERLLDALQKKLK [compound 156] | 
55 | 38 | PVLELFLNLWERLLDALQKKLK [peptide 155] | 
56 | 11 | PVLELWENLLERLLDALQKKLK [compound 176] | 
57 | 19 | VVLDLFRELLNELLEALKQKLK [compound 53] | 
